{"source": "ChEMBL document CHEMBL4725331", "about": "“An investigative study of antitumor properties of a novel thiazolo[4,5-d]pyrimidine small molecule revealing superior antitumor activity with CDK1 selectivity and potent pro-apoptotic properties” (Bioorg Med Chem, 2020)", "key": {"SK-MEL-2 [1]": {"test_system": "SK-MEL-2", "experiment": "Antiproliferative activity against human SK-MEL-2 cells assessed as inhibition of cell growth at 10 uM measured after 48 hrs by SRB assay relative to control", "assay_type": "functional"}, "WI-38 [2]": {"test_system": "WI-38", "experiment": "Cell cycle arrest in human WI-38 cells assessed as accumulation in sub-G phase at IC50 concentration incubated for 48 hrs by propidium iodide staining based flow cytometry analysis (reference value: 1.35 %)", "settings": "wi-38, 48 h"}, "SK-MEL-5": {"test_system": "SK-MEL-5", "experiment": "Antiproliferative activity against human SK-MEL-5 cells assessed as inhibition of cell growth at 10 uM measured after 48 hrs by SRB assay relative to control", "assay_type": "functional"}, "HCC 2998 [3]": {"test_system": "HCC 2998", "experiment": "Antiproliferative activity against human HCC 2998 cells assessed as inhibition of cell growth at 10 uM measured after 48 hrs by SRB assay relative to control", "assay_type": "functional"}, "T47D": {"test_system": "T47D", "experiment": "Antiproliferative activity against human T47D cells assessed as inhibition of cell growth measured after 48 hrs by SRB assay", "assay_type": "functional"}, "SW-620": {"test_system": "SW-620", "experiment": "Antiproliferative activity against human SW-620 cells assessed as inhibition of cell growth measured after 48 hrs by SRB assay", "assay_type": "functional"}, "ACHN [4]": {"test_system": "ACHN", "experiment": "Antiproliferative activity against human ACHN cells assessed as inhibition of cell growth at 10 uM measured after 48 hrs by SRB assay relative to control", "assay_type": "functional"}, "ACHN [5]": {"test_system": "ACHN", "experiment": "Antiproliferative activity against human ACHN cells assessed as inhibition of cell growth measured after 48 hrs by SRB assay", "assay_type": "functional"}, "HCT-15": {"test_system": "HCT-15", "experiment": "Antiproliferative activity against human HCT-15 cells assessed as inhibition of cell growth at 10 uM measured after 48 hrs by SRB assay relative to control", "assay_type": "functional"}, "MDA-MB-435": {"test_system": "MDA-MB-435", "experiment": "Antiproliferative activity against human MDA-MB-435 cells assessed as inhibition of cell growth at 10 uM measured after 48 hrs by SRB assay relative to control", "assay_type": "functional"}, "SK-MEL-2 [6]": {"test_system": "SK-MEL-2", "experiment": "Antiproliferative activity against human SK-MEL-2 cells assessed as inhibition of cell growth measured after 48 hrs by SRB assay", "assay_type": "functional"}, "NCI-H322M": {"test_system": "NCI-H322M", "experiment": "Antiproliferative activity against human NCI-H322M cells assessed as inhibition of cell growth at 10 uM measured after 48 hrs by SRB assay relative to control", "assay_type": "functional"}, "COLO 205": {"test_system": "COLO 205", "experiment": "Antiproliferative activity against human COLO 205 cells assessed as inhibition of cell growth at 10 uM measured after 48 hrs by SRB assay relative to control", "assay_type": "functional"}, "HCC 2998 [7]": {"test_system": "HCC 2998", "experiment": "Antiproliferative activity against human HCC 2998 cells assessed as inhibition of cell growth measured after 48 hrs by SRB assay", "assay_type": "functional"}, "HCT-116 [8]": {"test_system": "HCT-116", "experiment": "Induction of apoptosis in human HCT116 cells assessed as increase in p53 gene expression by RT-PCR analysis relative to untreated control", "assay_type": "functional"}, "SR": {"test_system": "SR", "experiment": "Antiproliferative activity against human SR cells assessed as inhibition of cell growth measured after 48 hrs by SRB assay", "assay_type": "functional"}, "HCT-116 [9]": {"test_system": "HCT-116", "experiment": "Cytotoxicity against human HCT-116 cells assessed as reduction in cell viability after 48 hrs by MTT assay", "assay_type": "functional, cell-based", "settings": "HCT-116, 48 h"}, "OVCAR-5": {"test_system": "OVCAR-5", "experiment": "Antiproliferative activity against human OVCAR-5 cells assessed as inhibition of cell growth measured after 48 hrs by SRB assay", "assay_type": "functional"}, "WI-38 [10]": {"test_system": "WI-38", "experiment": "Cytotoxicity against human WI-38 cells assessed as reduction in cell viability after 48 hrs by MTT assay", "assay_type": "cell-based", "settings": "WI-38, 48 h"}, "[11]": {"settings": "read-out: LC50 (the source's name)"}}, "note": "pIC50: −log10 of the molar value.", "data": [{"smiles": "COc1ccc(-n2c(=S)sc3c(Cl)nc(C)nc32)c(OC)c1", "values": [{"measurement": "inhibition at 10 µM", "setting": "SK-MEL-2 [1]", "result": "> 50", "unit": "%"}, {"measurement": "Activity", "setting": "WI-38 [2]", "result": 6.1, "unit": "%"}, {"measurement": "inhibition at 10 µM", "setting": "SK-MEL-5", "result": "> 50", "unit": "%"}, {"measurement": "inhibition at 10 µM", "setting": "HCC 2998 [3]", "result": "> 50", "unit": "%"}, {"measurement": "GI50", "setting": "T47D", "result": 6.46, "unit": "µM"}, {"measurement": "TGI", "setting": "T47D", "result": 21.9, "unit": "µM"}, {"measurement": "CC50", "setting": "T47D; [11]", "result": 56.2, "unit": "µM"}, {"measurement": "GI50", "setting": "SW-620", "result": 2.57, "unit": "µM"}, {"measurement": "TGI", "setting": "SW-620", "result": 5.5, "unit": "µM"}, {"measurement": "CC50", "setting": "SW-620; [11]", "result": 28.8, "unit": "µM"}, {"measurement": "inhibition at 10 µM", "setting": "ACHN [4]", "result": "> 50", "unit": "%"}, {"measurement": "GI50", "setting": "ACHN [5]", "result": 2.09, "unit": "µM"}, {"measurement": "TGI", "setting": "ACHN [5]", "result": 3.98, "unit": "µM"}, {"measurement": "CC50", "setting": "ACHN [5]; [11]", "result": 7.59, "unit": "µM"}, {"measurement": "inhibition at 10 µM", "setting": "HCT-15", "result": "> 50", "unit": "%"}, {"measurement": "inhibition at 10 µM", "setting": "MDA-MB-435", "result": "> 50", "unit": "%"}, {"measurement": "GI50", "setting": "SK-MEL-2 [6]", "result": 2.04, "unit": "µM"}, {"measurement": "TGI", "setting": "SK-MEL-2 [6]", "result": 3.98, "unit": "µM"}, {"measurement": "CC50", "setting": "SK-MEL-2 [6]; [11]", "result": 7.76, "unit": "µM"}, {"measurement": "inhibition at 10 µM", "setting": "NCI-H322M", "result": "> 50", "unit": "%"}, {"measurement": "inhibition at 10 µM", "setting": "COLO 205", "result": "> 50", "unit": "%"}, {"measurement": "GI50", "setting": "HCC 2998 [7]", "result": 16.2, "unit": "µM"}, {"measurement": "TGI", "setting": "HCC 2998 [7]", "result": 30.9, "unit": "µM"}, {"measurement": "CC50", "setting": "HCC 2998 [7]; [11]", "result": 58.9, "unit": "µM"}, {"measurement": "fold change (FC)", "setting": "HCT-116 [8]", "result": 13.1}, {"measurement": "GI50", "setting": "SR", "result": 1.41, "unit": "µM"}, {"measurement": "TGI", "setting": "SR", "result": 5.5, "unit": "µM"}, {"measurement": "CC50", "setting": "SR; [11]", "result": "> 100", "unit": "µM"}, {"measurement": "pIC50", "setting": "HCT-116 [9]", "result": 5.27}, {"measurement": "GI50", "setting": "OVCAR-5", "result": 6.17, "unit": "µM"}, {"measurement": "TGI", "setting": "OVCAR-5", "result": 20.9, "unit": "µM"}, {"measurement": "CC50", "setting": "OVCAR-5; [11]", "result": 53.7, "unit": "µM"}, {"measurement": "pIC50", "setting": "WI-38 [10]", "result": 4.66}]}]}
